Among the data in patent US10023592B2, “Bromodomain inhibitors” (Celgene Quanticel Research, Inc., priority 2013, dated 2018) are IC50 values, retold here.

Some results are limits rather than exact numbers.

In test [1] the test system is NCI-H460, human non-small cell lung cancer cells. As to the kind of experiment: Cell-MTS proliferation assay, NCI-H460. It is filed as cell-based. The settings on record: Homo sapiens, 168 hr. The procedure, abridged: (§1)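 Seeded for ~90% confluence at 7 days (Raji 15,000, HL-60 5,000, NCI-H460 3,000 cells/well); compound added 24 h post-plating as 11-point dilution, 100 μM to 2.0 nM final.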

A further test addresses BRD4(BD1) (Homo sapiens (Human), UniProt O60885). As to the kind of experiment: In vitro enzyme inhibition assay (BRD4 AlphaScreen). Format: binding. The procedure, abridged:
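His-tagged BRD4 tested by AlphaScreen for binding of biotinylated H4K5/8/12/16-tetraacetyl peptide. After 20 min at room temperature, streptavidin donor and nickel chelate acceptor beads added (5 μg/mL final each). IC50 determined.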
A general note: Alpha assays give light when donor and acceptor beads are brought close together.

In test [2] the test system is Raji, human Burkitts lymphoma cells. As to the kind of experiment: Cell-MTS proliferation assay, Raji. Format: cell-based. To be noted: Homo sapiens, 168 hr. The procedure, abridged:
as §1

In test [3] the test system is HL-60, human proleukemia cells. As to the kind of experiment: Cell-MTS proliferation assay, HL-60. It is filed as cell-based. The settings on record: Homo sapiens, 168 hr. The procedure, abridged: as §1
[4] abbreviates: NCI-H460, Cell-MTS proliferation.
Setting [5] is: in vitro enzyme inhibition assay.
Where [6] appears, read: NCI-H460, Cell-MTS, class symbols A/B/C.
The mark [7] stands for this setting: Raji, Cell-MTS, class symbols A/B/C.
Where [8] appears, read: HL-60, Cell-MTS, class symbols A/B/C.
Setting [9] is: Cell-MTS proliferation, NCI-H460 cells.
The mark [10] stands for this setting: Cell-MTS proliferation, Raji cells.
Setting [11] is: Cell-MTS proliferation, HL-60 cells.

Regarding `CCN(c1ncc(OCC2CC2)c(-c2cn(C)c(=O)c3ccccc23)n1)S(C)(=O)=O` [Example 161, N-[5-(cyclopropylmethoxy)-4-(2-methyl-1-oxoisoquinolin-4-yl)pyrimidin-2-yl]-N-ethylmethanesulfonamide], the IC50 is more than 5000 nM in test [1] (setting [4]); less than 500 nM against BRD4(BD1) (setting [5]); less than 500 nM in test [2] (Raji, Cell-MTS proliferation); less than 500 nM in test [3] (HL-60, Cell-MTS proliferation).
As for `Cc1cc(-c2cc(S(C)(=O)=O)ccc2OCC2CC2)cn(CC(C)C)c1=O` [Example 243, 5-[2-(cyclopropylmethoxy)-5-methylsulfonylphenyl]-3-methyl-1-(2-methylpropyl)pyridin-2-one], the IC50 is more than 5000 nM in test [1] (setting [4]); 500 to 5000 nM against BRD4(BD1) (setting [5]); more than 5000 nM in test [2] (Raji, Cell-MTS proliferation); 500 to 5000 nM in test [3] (HL-60, Cell-MTS proliferation).
`CCS(=O)(=O)Nc1ccc(Oc2ccc(F)cc2F)c(-c2cc(Cl)c(=O)n(C)c2)c1` [Example 134, N-[3-(5-chloro-1-methyl-6-oxopyridin-3-yl)-4-(2,4-difluorophenoxy)phenyl]ethanesulfonamide]: the IC50 in test [1] (setting [6]) is 500 to 5000 nM; against BRD4(BD1) (class symbols A/B/C), less than 500 nM; in test [2] (setting [7]) it was less than 500 nM; in test [3] (setting [8]), less than 500 nM.
On to `CCS(=O)(=O)Nc1ccc(Oc2ccc(F)cc2F)c(-c2cn(C)c(=O)c3ccoc23)c1` [Example 379, N-[4-(2,4-difluorophenoxy)-3-(5-methyl-4-oxofuro[3,2-c]pyridin-7-yl)phenyl] ethanesulfonamide], for which the IC50 in test [1] (setting [9]) is more than 5000 nM; at BRD4(BD1) (setting [5]), less than 500 nM; in test [2] (setting [10]), less than 500 nM; in test [3] (setting [11]) it was less than 500 nM.
`CCc1ccc(S(C)(=O)=O)cc1-c1ccc(=O)n(C)c1` [Example 312, 5-(2-ethyl-5-methylsulfonylphenyl)-1-methylpyridin-2-one]: the IC50 was more than 5000 nM in test [1] (setting [4]); 500 to 5000 nM at BRD4(BD1) (setting [5]); more than 5000 nM in test [2] (Raji, Cell-MTS proliferation); more than 5000 nM in test [3] (HL-60, Cell-MTS proliferation).
With `CCS(=O)(=O)Nc1cccc(-c2cn(C)c(=O)c3ccncc23)c1` [Example 123, N-[3-(2-methyl-1-oxo-2,6-naphthyridin-4-yl)phenyl]ethanesulfonamide], the IC50 in test [1] (setting [6]) is more than 5000 nM; on BRD4(BD1) (class symbols A/B/C), 500 to 5000 nM; in test [2] (setting [7]) it was 500 to 5000 nM; in test [3] (setting [8]) it was 500 to 5000 nM.
As to `CCS(=O)(=O)Nc1ccc(Oc2ccc(F)cc2F)c(-c2cn(C)c(=O)c3occc23)c1` [Example 253, N-[4-(2,4-difluorophenoxy)-3-(6-methyl-7-oxofuro[2,3-c]pyridin-4-yl)phenyl]ethanesulfonamide], the IC50 in test [1] (setting [4]) is more than 5000 nM; at BRD4(BD1) (setting [5]) it was less than 500 nM; in test [2] (Raji, Cell-MTS proliferation), less than 500 nM; in test [3] (HL-60, Cell-MTS proliferation) it was less than 500 nM.
Consider `Cn1cc(-c2cc(S(C)(=O)=O)ccc2NC(=O)C2CC2)c2ccccc2c1=O` [Example 220, N-[2-(2-methyl-1-oxoisoquinolin-4-yl)-4-methylsulfonylphenyl]cyclopropanecarboxamide], for which the IC50 in test [1] (setting [4]) was more than 5000 nM; against BRD4(BD1) (setting [5]), 500 to 5000 nM; in test [2] (Raji, Cell-MTS proliferation), more than 5000 nM; in test [3] (HL-60, Cell-MTS proliferation), more than 5000 nM.
Consider `CCS(=O)(=O)Nc1ccc(Cl)c(-c2cn(C)c(=O)c3ccc(-c4cnn(C)c4)cc23)c1` [Example 45, N-[4-chloro-3-[2-methyl-6-(1-methylpyrazol-4-yl)-1-oxoisoquinolin-4-yl]phenyl]ethanesulfonamide], for which the half-inhibitory concentration (IC50) in test [1] (setting [6]) was 500 to 5000 nM; against BRD4(BD1) (class symbols A/B/C), less than 500 nM; in test [2] (setting [7]), less than 500 nM; in test [3] (setting [8]), less than 500 nM.
Turning to `CCS(=O)(=O)c1ccc(OCC2CC2)c(-c2cc(C3CC3)c(=O)n(C)c2)c1` [Example 280, 3-cyclopropyl-5-[2-(cyclopropylmethoxy)-5-ethylsulfonylphenyl]-1-methylpyridin-2-one], the IC50 was more than 5000 nM in test [1] (setting [4]); less than 500 nM at BRD4(BD1) (setting [5]); less than 500 nM in test [2] (Raji, Cell-MTS proliferation); less than 500 nM in test [3] (HL-60, Cell-MTS proliferation).
Turning to `COc1ccc(S(=O)(=O)CCO)cc1-c1cn(C)c(=O)c2ccc(-c3cnn(C)c3)cc12` [Example 208, 4-[5-(2-hydroxyethylsulfonyl)-2-methoxyphenyl]-2-methyl-6-(1-methylpyrazol-4-yl)isoquinolin-1-one], the IC50 was more than 5000 nM in test [1] (setting [4]); less than 500 nM on BRD4(BD1) (setting [5]); 500 to 5000 nM in test [2] (Raji, Cell-MTS proliferation); less than 500 nM in test [3] (HL-60, Cell-MTS proliferation).
As for `CCS(=O)(=O)Nc1ccc(Oc2ccc(F)cc2F)c(-c2cc(C)c(=O)n(CC3CC3)c2)c1` [Example 247, N-[3-[1-(cyclopropylmethyl)-5-methyl-6-oxopyridin-3-yl]-4-(2,4-difluoro-phenoxy)phenyl]ethanesulfonamide], the 50% inhibitory concentration (IC50) in test [1] (setting [4]) was more than 5000 nM; against BRD4(BD1) (setting [5]) it was less than 500 nM; in test [2] (Raji, Cell-MTS proliferation) it was less than 500 nM; in test [3] (HL-60, Cell-MTS proliferation), less than 500 nM.
In the case of `Cn1cc(-c2cc(CS(C)(=O)=O)ccc2Oc2ccc(F)cc2F)n2cncc2c1=O` [Example 372, 5-[2-(2,4-difluorophenoxy)-5-(methylsulfonylmethyl)phenyl]-7-methylimidazo[1,5-a]pyrazin-8-one], the IC50 in test [1] (setting [4]) was more than 5000 nM; against BRD4(BD1) (setting [5]), less than 500 nM; in test [2] (Raji, Cell-MTS proliferation) it was less than 500 nM; in test [3] (HL-60, Cell-MTS proliferation), less than 500 nM.
`CCS(=O)(=O)Cc1ccc(OCC(F)(F)F)c(-c2cn(C)c(=O)c3ccccc23)c1` [Example 487, 4-[5-(ethylsulfonylmethyl)-2-(2,2,2-trifluoroethoxy)phenyl]-2-methylisoquinolin-1-one]: the IC50 in test [1] (setting [9]) was more than 5000 nM; against BRD4(BD1) (setting [5]), less than 500 nM; in test [2] (setting [10]) it was less than 500 nM; in test [3] (setting [11]), less than 500 nM.
In the case of `COCC1COc2cc(S(C)(=O)=O)cc(-c3cn(C)c(=O)c4ccccc34)c2O1` (centres unmarked) [Example 497, 4-[3-(methoxymethyl)-7-methylsulfonyl-2,3-dihydro-1,4-benzodioxin-5-yl]-2-methylisoquinolin-1-one], the IC50 in test [1] (setting [9]) was more than 5000 nM; against BRD4(BD1) (setting [5]), less than 500 nM; in test [2] (setting [10]), 500 to 5000 nM; in test [3] (setting [11]), 500 to 5000 nM.
Regarding `Cc1cc(-c2cc(CS(C)(=O)=O)ccc2Oc2ccc(F)cc2F)cn(C)c1=O` [Example 455, 5-[2-(2,4-difluorophenoxy)-5-(methylsulfonylmethyl)phenyl]-1,3-dimethylpyridin-2-one], the IC50 was more than 5000 nM in test [1] (setting [9]), less than 500 nM at BRD4(BD1) (setting [5]), less than 500 nM in test [2] (setting [10]) and less than 500 nM in test [3] (setting [11]).
Take `CCS(=O)(=O)c1ccc(OCC2CC2)c(-c2cc(OC(F)F)c(=O)n(C)c2)c1` [Example 287, 5-[2-(cyclopropylmethoxy)-5-ethylsulfonylphenyl]-3-(difluoromethoxy)-1-methylpyridin-2-one]: the IC50 in test [1] (setting [4]) was more than 5000 nM; on BRD4(BD1) (setting [5]) it was less than 500 nM; in test [2] (Raji, Cell-MTS proliferation), 500 to 5000 nM; in test [3] (HL-60, Cell-MTS proliferation), less than 500 nM.
Turning to `Cc1cc(=O)n(C)cc1-c1cc(S(C)(=O)=O)ccc1OCC1CC1` [Example 477, 5-[2-(cyclopropylmethoxy)-5-methylsulfonylphenyl]-1,4-dimethylpyridin-2-one], the IC50 in test [1] (setting [9]) was more than 5000 nM; against BRD4(BD1) (setting [5]) it was less than 500 nM; in test [2] (setting [10]) it was 500 to 5000 nM; in test [3] (setting [11]), less than 500 nM.
`Cn1cc(-c2cc(S(C)(=O)=O)ccc2O[C@H]2CC[C@H](O)CC2)c2ccccc2c1=O` [Example 180, 4-[2-(trans-4-hydroxycyclohexyl)oxy-5-methylsulfonylphenyl]-2-methylisoquinolin-1-one]: the IC50 was more than 5000 nM in test [1] (setting [4]); less than 500 nM at BRD4(BD1) (setting [5]); less than 500 nM in test [2] (Raji, Cell-MTS proliferation); less than 500 nM in test [3] (HL-60, Cell-MTS proliferation).
As to `Cc1cc(-c2cc(S(C)(=O)=O)ccc2OCC2CC2)cn(Cc2cocn2)c1=O` [Example 246, 5-[2-(cyclopropylmethoxy)-5-methylsulfonylphenyl]-3-methyl-1-(1,3-oxazol-4-ylmethyl)pyridin-2-one], the half-maximal inhibitory concentration (IC50) in test [1] (setting [4]) was more than 5000 nM; on BRD4(BD1) (setting [5]), 500 to 5000 nM; in test [2] (Raji, Cell-MTS proliferation), more than 5000 nM; in test [3] (HL-60, Cell-MTS proliferation) it was more than 5000 nM.
With `Cc1cnn(-c2ccc3c(=O)n(C)cc(-c4cc(S(C)(=O)=O)ccc4OCC4CC4)c3c2)c1` [Example 128, 4-[2-(cyclopropylmethoxy)-5-methylsulfonylphenyl]-2-methyl-6-(4-methylpyrazol-1-yl)isoquinolin-1-one], the IC50 is more than 5000 nM in test [1] (setting [6]), less than 500 nM against BRD4(BD1) (class symbols A/B/C), less than 500 nM in test [2] (setting [7]) and less than 500 nM in test [3] (setting [8]).
As for `Cc1cc(-c2cc(S(C)(=O)=O)ccc2O[C@H]2CC[C@H](N)CC2)cn(C)c1=O` [Example 404, 5-[2-(trans-4-aminocyclohexyl)oxy-5-methylsulfonylphenyl]-1,3-dimethylpyridin-2-one], the 50% inhibitory concentration (IC50) in test [1] (setting [9]) was more than 5000 nM; at BRD4(BD1) (setting [5]) it was less than 500 nM; in test [2] (setting [10]) it was more than 5000 nM; in test [3] (setting [11]) it was less than 500 nM.
Regarding `COc1ccc(-c2cc(N(C)C)c(=O)n(C)c2)cc1NS(C)(=O)=O` [Example 113, N-[5-[5-(dimethylamino)-1-methyl-6-oxopyridin-3-yl]-2-methoxyphenyl]methanesulfonamide], the IC50 is 500 to 5000 nM in test [1] (setting [6]), less than 500 nM at BRD4(BD1) (class symbols A/B/C), 500 to 5000 nM in test [2] (setting [7]) and less than 500 nM in test [3] (setting [8]).

Usually IC50 stands for the midpoint of a concentration-inhibition curve.
